Measurements taken from PubChem BioAssay (NCI).
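Five compound concentrations were applied to cells in 96-well plates for 48 hours; endpoints were derived by simple linear interpolation of the resulting dose-response curve. Abbreviation: GI50, concentration required for 50% inhibition of growth. Definition used: TGI = concentration required for complete inhibition of growth.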

Tests used:
Experiment in all cases: inhibition of tumour cell growth, NCI panel, 48 h; in the data active = GI50 below about 0.43 µM; inactive = the rest
[1] = system: 786-0 renal
[2] = system: A549 NSCLC
[3] = system: ACHN renal
[4] = system: CCRF-CEM leukemia
[5] = system: DLD-1 colon
[6] = system: EKVX NSCLC
[7] = system: HCC-2998 colon
[8] = system: HCT-116 colon
[9] = system: HCT-15 colon
[10] = system: HL-60(TB) leukemia
[11] = system: HOP-18 NSCLC
[12] = system: HOP-62 NSCLC
[13] = system: HOP-92 NSCLC
[14] = system: HT29 colon
[15] = system: IGROV1 ovarian
[16] = system: K-562 leukemia
[17] = system: KM12 colon
[18] = system: KM20L2 colon
[19] = system: LOX IMVI melanoma
[20] = system: LXFL 529 NSCLC
[21] = system: M14 melanoma
[22] = system: M19-MEL melanoma
[23] = system: MALME-3M melanoma
[24] = system: MOLT-4 leukemia
[25] = system: NCI-H23 lung
[26] = system: NCI-H460 lung
[27] = system: NCI-H522 lung
[28] = system: OVCAR-3 ovarian
[29] = system: OVCAR-4 ovarian
[30] = system: OVCAR-5 ovarian
[31] = system: OVCAR-8 ovarian
[32] = system: RXF 393 renal
[33] = system: SF-295 CNS
[34] = system: SF-539 CNS
[35] = system: SK-MEL-2 melanoma
[36] = system: SK-MEL-28 melanoma
[37] = system: SK-MEL-5 melanoma
[38] = system: SK-OV-3 ovarian
[39] = system: SN12C renal
[40] = system: SNB-75 CNS
[41] = system: SNB-78 CNS
[42] = system: SW-620 colon
[43] = system: TK-10 renal
[44] = system: U251 CNS
[45] = system: UACC-257 melanoma
[46] = system: UACC-62 melanoma
[47] = system: UO-31 renal

C1=CCCC=CCC1.C[PH+](C)C.C[PH+](C)C.C[PH+](C)C.[Cl-].[Ir]
inactive: GI50 [1] > 100 µM | GI50 [2] 80.1 µM | GI50 [3] > 100 µM | GI50 [4] 19.4 µM | GI50 [5] > 100 µM | GI50 [6] 76.1 µM | GI50 [7] 91.4 µM | GI50 [8] 42.9 µM | GI50 [9] > 100 µM | GI50 [10] 28.7 µM | GI50 [11] > 100 µM | GI50 [12] > 100 µM | GI50 [13] 28.6 µM | GI50 [14] 47.6 µM | GI50 [15] 36.3 µM | GI50 [16] 26.6 µM | GI50 [17] 43.6 µM | GI50 [18] > 100 µM | GI50 [19] 31.4 µM | GI50 [20] 17.3 µM | GI50 [21] > 100 µM | GI50 [22] 39.8 µM | GI50 [23] 22.9 µM | GI50 [24] 30.2 µM | GI50 [25] > 100 µM | GI50 [26] 77.9 µM | GI50 [27] 26.4 µM | GI50 [28] 29.6 µM | GI50 [29] 67.8 µM | GI50 [30] > 100 µM | GI50 [31] 35.2 µM | GI50 [32] > 100 µM | GI50 [33] > 100 µM | GI50 [34] > 100 µM | GI50 [35] 23.4 µM | GI50 [36] 46.6 µM | GI50 [37] 70 µM | GI50 [38] > 100 µM | GI50 [39] 82.6 µM | GI50 [40] 34.3 µM | GI50 [41] > 100 µM | GI50 [42] 36.4 µM | GI50 [43] > 100 µM | GI50 [44] 46.2 µM | GI50 [45] 23.2 µM | GI50 [46] 32.6 µM | GI50 [47] > 100 µM
60.1 µM: TGI [27]
75.3 µM: TGI [10]
71.7 µM: TGI [4]
60.4 µM: TGI [35]
77.4 µM: TGI [28]
59.1 µM: TGI [45]
62.2 µM: TGI [20]
61.5 µM: TGI [23]
> 100 µM: TGI [1] | TGI [2] | TGI [3] | TGI [5] | TGI [6] | TGI [7] | TGI [8] | TGI [9] | TGI [11] | TGI [12] | TGI [14] | TGI [15] | TGI [16] | TGI [17] | TGI [18] | TGI [19] | TGI [21] | TGI [22] | TGI [24] | TGI [25] | TGI [26] | TGI [29] | TGI [30] | TGI [31] | TGI [32] | TGI [33] | TGI [34] | TGI [36] | TGI [37] | TGI [38] | TGI [39] | TGI [40] | TGI [41] | TGI [42] | TGI [43] | TGI [44] | TGI [46] | TGI [47]
98.8 µM: TGI [13]
